Here are results for 3 compounds from ChEMBL document CHEMBL5634158, “From garden to lab: C-3 chemical modifications of tomatidine unveil broad-spectrum ATP synthase inhibitors to combat bacterial resistance” (Eur J Med Chem, 2023).

Series [1] concerns Escherichia coli. The experiment in a line: Antibacterial activity against Escherichia coli MC4100 harbouring lptD mutant assessed as reduction in bacterial growth by CLSI based broth microdilution method. The series is classed as functional. (In general: In broth dilution the organism is exposed to a series of concentrations in liquid medium.)
The subject of series [2] is Staphylococcus aureus. The experiment in a line: Antibacterial activity against Staphylococcus aureus ATCC 29213 hemB SCV assessed as reduction in microbial growth incubated for 20 hrs under aerobic condition by CLSI based broth microdilution method. It counts as functional.
In series [3] the test system is Staphylococcus aureus. In words: Antibacterial activity against Staphylococcus aureus ATCC 29213 assessed as reduction in microbial growth incubated for 20 hrs under aerobic condition by CLSI based broth microdilution method. It counts as functional.
Series [4] concerns Escherichia coli. In words: Selectivity ratio of MIC for Escherichia coli MC4100 to MIC for Escherichia coli MC4100 harbouring acrAB mutant. The series is classed as toxicity, organism-based. The settings on record: in vivo.
Series [5] relates to Escherichia coli. In words: Antibacterial activity against Escherichia coli MC4100 assessed as reduction in bacterial growth by CLSI based broth microdilution method. It counts as functional.
Series [6] can be described thus: Inhibition of Escherichia coli ATCC 25922 ATP synthase activity preincubated for 30 mins followed by NADH/ADP addition and measured after 60 mins by luciferin/luciferase luminescence assay.
The subject of series [7] is Escherichia coli. The experiment in a line: Antibacterial activity against Escherichia coli ATCC 25922 assessed as reduction in microbial growth incubated for 20 hrs under aerobic condition by CLSI based broth microdilution method. It counts as functional.
Series [8] relates to Escherichia coli. In words: Antibacterial activity against Escherichia coli MC4100 harbouring acrAB mutant assessed as reduction in bacterial growth by CLSI based broth microdilution method. It counts as functional.
For series [9], the system named is Escherichia coli. In words: Antibacterial activity against Escherichia coli ATCC 25922 assessed as fold decrease in MIC for 20 hrs under aerobic condition by CLSI based broth microdilution method. The series is classed as functional.
Series [10] concerns Staphylococcus aureus. In words: Antibacterial activity against Staphylococcus aureus ATCC 29213 assessed as fold decrease in MIC incubated for 20 hrs under aerobic condition by CLSI based broth microdilution method. It counts as functional.
For series [11], the system named is Staphylococcus aureus. The experiment in a line: Antibacterial activity against wild type Staphylococcus aureus ATCC 29213 assessed as reduction in microbial growth by CLSI based broth microdilution method. It counts as functional.
Series [12] concerns Staphylococcus aureus. The experiment in a line: Antibacterial activity against Staphylococcus aureus ATCC 29213 SCV assessed as reduction in microbial growth by CLSI based broth microdilution method. The series is classed as functional.

For `C[C@H]1CC[C@]2(NC1)O[C@H]1C[C@H]3[C@@H]4CC[C@H]5CC(NC[C@@H](N)Cc6ccc(O)cc6)CC[C@]5(C)[C@H]4CC[C@]3(C)[C@H]1[C@@H]2C` (mixture of isomers), the minimum inhibitory concentration (MIC) was 8 µg/mL in the series with Escherichia coli [1]; 0.25 µg/mL in the series with Staphylococcus aureus [2]; 8 µg/mL with Staphylococcus aureus [3]; more than 128 µg/mL in the series with Escherichia coli [5]; 64 µg/mL in the series on Escherichia coli [7]; 16 µg/mL in the series on Escherichia coli [8]. In addition, in the series with Escherichia coli [4], the Selectivity ratio is recorded as more than 8. Further, inhibition in series [6] was half-maximal at 1600 nM (IC50).

With `C[C@H]1CC[C@]2(NC1)O[C@H]1C[C@H]3[C@@H]4CC[C@H]5CC(NC[C@@H]6Cc7ccccc7CN6)CC[C@]5(C)[C@H]4CC[C@]3(C)[C@H]1[C@@H]2C` (mixture of isomers), the MIC was 16 µg/mL with Staphylococcus aureus [3] and more than 128 µg/mL in the series on Escherichia coli [7]. The “fold change (FC)” value in the series with Escherichia coli [9] and in the series with Staphylococcus aureus [10] was 2 throughout.

For the compound `C[C@H]1CC[C@]2(NC1)O[C@H]1C[C@H]3[C@@H]4CC[C@H]5C[C@@H](O)CC[C@]5(C)[C@H]4CC[C@]3(C)[C@H]1[C@@H]2C` [TOMATIDINE], the MIC in the series on Staphylococcus aureus [11] is more than 64 µg/mL; in the series with Staphylococcus aureus [2], 0.06 µg/mL; in the series on Staphylococcus aureus [12], 0.06 µg/mL; with Staphylococcus aureus [3] it was more than 64 µg/mL; in the series with Escherichia coli [7], more than 128 µg/mL.

For orientation: MIC means the lowest concentration found to suppress growth. A word on the IC50: it is the concentration that inhibits the measured activity by half.
